Publication PMC7069944, “Amino acid levels determine metabolism and CYP450 function of hepatocytes and hepatoma cell lines” (Nature Communications, 2020)
Where “and” joins values, the source holds several entries; their conditions need not be identical. Identical values can stand only once.

Columns and labels:
HLC = experiment: Repeated-exposure DILI training compounds, resazurin conversion, HLC; conditions: listed as Nefadazone; for resazurin conversion (Supplementary Figure 7D): replicates; for % resazurin conversion: repeat exposure
Procedure, shortened: (§1)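 Hepatotoxicity prediction used a miniaturized 384-well differentiation setup, scoring viability through resazurin reduction relative to Cmax.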

HepG2 = experiment: Repeated-exposure DILI training compounds, resazurin conversion, HepG2; conditions: listed as Nefadazone; for resazurin conversion (Supplementary Figure 7D): replicates; for % resazurin conversion: repeat exposure
Procedure, shortened: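 Viability by resazurin conversion, correlated with Cmax, was assessed after drug exposure in 384-well cultures of differentiated PSCs and of HepG2 (40,000 cells/well). Dosing began 8 h post-attachment, with untreated wells as negative control.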

HC6X = experiment: Repeated-exposure DILI training compounds, resazurin conversion, HC6X; conditions: listed as Nefadazone; for resazurin conversion (Supplementary Figure 7D): replicates; for % resazurin conversion: repeat exposure
Procedure, shortened: as §1

HC3X = experiment: Repeated-exposure DILI training compounds, resazurin conversion, HC3X; conditions: for resazurin conversion (Supplementary Figure 7D): HC3X AAGLY D40, replicates
Procedure, shortened: as §1

Compound: CCc1nn(CCCN2CCN(c3cccc(Cl)c3)CC2)c(=O)n1CCOc1ccccc1 [nefazodone]
- resazurin conversion (Supplementary Figure 7D) (HLC; HLC AAGLY D40, 3 uM): 81 and 139.4 and 131.8 and 81.1 and 194.1 and 102.8
- resazurin conversion (Supplementary Figure 7D) (HLC; HLC AAGLY D40, 5 uM): 158.2 and 102.6 and 130.1 and 239.6 and 167 and 46.2
- resazurin conversion (Supplementary Figure 7D) (HLC; HLC AAGLY D40, 10 uM): 117.1 and 195.1 and 92.8 and 87 and 6 and 258.8
- resazurin conversion (Supplementary Figure 7D) (HLC; HLC AAGLY D40, 30 uM): 52.4 and 182.9 and 124.1 and 55.1 and 48.3 and 27
- resazurin conversion (Supplementary Figure 7D) (HLC; HLC AAGLY D40, 50 uM): 46.9 and 25.2 and 26.1 and 23.4 and 30.1 and 22.3
- resazurin conversion (Supplementary Figure 7D) (HLC; HLC AAGLY D40, 100 uM): 22.1 and 23 and 22.5 and 22.9 and 24.2 and 22.8
- resazurin conversion (Supplementary Figure 7D) (HLC; HLC AAGLY D40, 300 uM): 25.4 and 26.9 (2×) and 25.9 and 25.8 and 27.1
- resazurin conversion (Supplementary Figure 7D) (HLC; HLC AAGLY D40, 600 uM): 27.4 and 30.3 and 28.5 and 29.2 and 27.1 and 28.7
- resazurin conversion (Supplementary Figure 7D) (HLC; HLC LDM D40, 3 uM): 101.3 and 106.4 and 83.1 and 128.8 and 110.4 and 128.2
- resazurin conversion (Supplementary Figure 7D) (HLC; HLC LDM D40, 5 uM): 103.9 and 126.1 and 116.3 and 112.6 and 76.1 and 103.3
- resazurin conversion (Supplementary Figure 7D) (HLC; HLC LDM D40, 10 uM): 114.4 and 115.2 and 124.5 and 104.3 and 103.8 and 111.5
- resazurin conversion (Supplementary Figure 7D) (HLC; HLC LDM D40, 30 uM): 92.8 and 75.4 and 51.3 and 90.2 and 120.8 and 118.9
- resazurin conversion (Supplementary Figure 7D) (HLC; HLC LDM D40, 50 uM): 12.7 and 17.8 and 12.3 and 20.8 and 25.8 and 69.6
- resazurin conversion (Supplementary Figure 7D) (HLC; HLC LDM D40, 100 uM): 11 and 11.6 and 11.2 and 11.3 and 10.7 and 11.5
- resazurin conversion (Supplementary Figure 7D) (HLC; HLC LDM D40, 300 uM): 13.5 and 13.3 and 13.6 and 12.4 and 12.2 (2×)
- resazurin conversion (Supplementary Figure 7D) (HLC; HLC LDM D40, 600 uM): 13.7 (2×) and 13.1 and 13.4 and 13.5 and 13.2
- % resazurin conversion (HLC; HLC AAGLY D40, 1200 uM): 28.9% and 30.9% and 30.5% and 32.9% and 28% and 30.1%
- % resazurin conversion (HLC; HLC LDM D40, 1200 uM): 14.7% and 15.3% and 13.9% and 14.1% and 13.7% and 12%
- resazurin conversion (Supplementary Figure 7D) (HepG2; HepG2 AAGLY D30, 3 uM): 105.9 and 126.8 and 102.6 and 103 and 93.1 and 96.9
- resazurin conversion (Supplementary Figure 7D) (HepG2; HepG2 AAGLY D30, 5 uM): 129.6 and 134.9 and 121.5 and 111.6 and 104 and 111.7
- resazurin conversion (Supplementary Figure 7D) (HepG2; HepG2 AAGLY D30, 10 uM): 105.3 and 123.3 and 96.5 and 99.1 and 96.1 and 97.4
- resazurin conversion (Supplementary Figure 7D) (HepG2; HepG2 AAGLY D30, 30 uM): 36 and 76.7 and 84.8 and 78.3 and 78 and 67.3
- resazurin conversion (Supplementary Figure 7D) (HepG2; HepG2 AAGLY D30, 50 uM): 9 and 9.3 and 8 (2×) and 8.1 and 7.7
- resazurin conversion (Supplementary Figure 7D) (HepG2; HepG2 AAGLY D30, 100 uM): 9.2 and 9.7 and 8.4 (2×) and 7.9 and 8.1
- resazurin conversion (Supplementary Figure 7D) (HepG2; HepG2 AAGLY D30, 300 uM): 11.5 and 11.8 and 10.1 (2×) and 10.3 and 9.9
- resazurin conversion (Supplementary Figure 7D) (HepG2; HepG2 AAGLY D30, 600 uM): 11.8 and 11.6 and 10.3 and 10.8 and 10.2 and 10.1
- resazurin conversion (Supplementary Figure 7D) (HepG2; HepG2 CTL D7, 3 uM): 81.4 and 72 and 103.7 and 72.2 and 87 and 94.4
- resazurin conversion (Supplementary Figure 7D) (HepG2; HepG2 CTL D7, 5 uM): 84.8 and 64.7 and 80.3 and 68.3 and 74.8 and 74.1
- resazurin conversion (Supplementary Figure 7D) (HepG2; HepG2 CTL D7, 10 uM): 81.6 and 63.4 and 87.3 and 63.9 and 78.5 and 72.9
- resazurin conversion (Supplementary Figure 7D) (HepG2; HepG2 CTL D7, 30 uM): 60.5 and 51.3 and 64.3 and 51.4 and 61.6 and 55.4
- resazurin conversion (Supplementary Figure 7D) (HepG2; HepG2 CTL D7, 50 uM): 35.6 and 31 and 32.6 and 33.9 and 34.6 and 33.7
- resazurin conversion (Supplementary Figure 7D) (HepG2; HepG2 CTL D7, 100 uM): 30.9 and 30.6 and 31.4 and 30 and 30.5 and 29.7
- resazurin conversion (Supplementary Figure 7D) (HepG2; HepG2 CTL D7, 300 uM): 36.6 and 35.8 and 37 and 36.1 and 37.2 and 36
- resazurin conversion (Supplementary Figure 7D) (HepG2; HepG2 CTL D7, 600 uM): 37.5 (2×) and 36.2 and 38.4 and 36.6 and 34.9
- % resazurin conversion (HepG2; HepG2 AAGLY D30, 1200 uM): 11% and 9.3% and 9.9% and 9.1%
- % resazurin conversion (HepG2; HepG2 CTL D7, 1200 uM): 34.4% and 33.1% and 36.4% and 33% and 34.9% and 32.3%
- resazurin conversion (Supplementary Figure 7D) (HC6X; HC6X AAGLY D40, 3 uM): 86.5 and 67.1 and 73.3 and 119.9 and 72.8 and 62.6
- resazurin conversion (Supplementary Figure 7D) (HC6X; HC6X AAGLY D40, 5 uM): 140.1 and 114.8 and 61.7 and 68.6 and 76.5 and 54.7
- resazurin conversion (Supplementary Figure 7D) (HC6X; HC6X AAGLY D40, 10 uM): 51.6 and 55.1 and 57.3 and 43.6 and 49.8 and 39.8
- resazurin conversion (Supplementary Figure 7D) (HC6X; HC6X AAGLY D40, 30 uM): 34.6 and 33.4 and 31.3 and 32.6 and 37.8 and 31.2
- resazurin conversion (Supplementary Figure 7D) (HC6X; HC6X AAGLY D40, 50 uM): 34.2 and 34.7 and 32 and 32.2 and 31.8 and 32.4
- resazurin conversion (Supplementary Figure 7D) (HC6X; HC6X AAGLY D40, 100 uM): 37.1 and 36.6 and 34.3 and 34.6 and 33.8 and 34.2
- resazurin conversion (Supplementary Figure 7D) (HC6X; HC6X AAGLY D40, 300 uM): 40.6 and 41.1 and 39.2 and 40 and 39.1 and 37.4
- resazurin conversion (Supplementary Figure 7D) (HC6X; HC6X AAGLY D40, 600 uM): 39.7 and 40.4 and 38.5 and 38.6 and 37.6 and 37.9
- resazurin conversion (Supplementary Figure 7D) (HC6X; HC6X AAGLY D40 Remove dox, 3 uM): 183.4 and 100.9 and 109.5 and 115 and 122 and 109.2
- resazurin conversion (Supplementary Figure 7D) (HC6X; HC6X AAGLY D40 Remove dox, 5 uM): 251 and 184.4 and 147 and 113 and 98.3 and 98.4
- resazurin conversion (Supplementary Figure 7D) (HC6X; HC6X AAGLY D40 Remove dox, 10 uM): 257.2 and 78.2 and 239.1 and 205.6 and 148.8 and 110.7
- resazurin conversion (Supplementary Figure 7D) (HC6X; HC6X AAGLY D40 Remove dox, 30 uM): 87 and 111.9 and 134.6 and 112.2 and 58.4 and 83.6
- resazurin conversion (Supplementary Figure 7D) (HC6X; HC6X AAGLY D40 Remove dox, 50 uM): 39.8 and 27.8 and 36.9 and 29.8 and 32 and 29.6
- resazurin conversion (Supplementary Figure 7D) (HC6X; HC6X AAGLY D40 Remove dox, 100 uM): 29.7 (2×) and 28.9 and 29.4 and 29.6 and 29.1
- resazurin conversion (Supplementary Figure 7D) (HC6X; HC6X AAGLY D40 Remove dox, 300 uM): 34.3 and 32.8 and 33.8 and 34 and 34.1 and 34.5
- resazurin conversion (Supplementary Figure 7D) (HC6X; HC6X AAGLY D40 Remove dox, 600 uM): 36.7 (2×) and 35.4 and 36 and 36.5 and 36.3
- % resazurin conversion (HC6X; HC6X AAGLY D40, 1200 uM): 40.4% and 40.1% and 39.1% and 39.2% and 37.6% and 37.4%
- % resazurin conversion (HC6X; HC6X AAGLY D40 Remove dox, 1200 uM): 38.2% and 35.3% and 36.9% and 37.7% and 37% and 35.8%
- resazurin conversion (Supplementary Figure 7D) (HC3X; 3 uM, listed as Nefadazone): 123.3 and 103.5 and 107.9 and 73 and 98.7 and 69.4
- resazurin conversion (Supplementary Figure 7D) (HC3X; 5 uM, listed as Nefadazone): 105.3 and 82.4 and 66.4 and 71.1 and 119.1 and 75.8
- resazurin conversion (Supplementary Figure 7D) (HC3X; 10 uM, listed as Nefadazone): 99 and 147.2 and 96.3 and 91.8 and 116 and 76.9
- resazurin conversion (Supplementary Figure 7D) (HC3X; 30 uM, listed as Nefadazone): 10.5 and 10.9 and 12.1 and 10 and 9.5 and 10.1
- resazurin conversion (Supplementary Figure 7D) (HC3X; 50 uM, listed as Nefadazone): 10 and 9.9 and 9.3 (2×) and 9.2 and 9.8
- resazurin conversion (Supplementary Figure 7D) (HC3X; 100 uM, listed as Nefadazone): 10.6 and 10.4 and 9.7 and 9.8 and 9.4 and 9.6
- resazurin conversion (Supplementary Figure 7D) (HC3X; 300 uM, listed as Nefadazone): 11.9 and 11.5 and 10.9 and 11.2 and 10.5 and 10.7
- resazurin conversion (Supplementary Figure 7D) (HC3X; 600 uM, listed as Nefadazone): 12 and 12.2 and 11.3 and 11.6 and 11.1 and 10.9
- IC50/Cmax (HC3X; human): 12.43
- % resazurin conversion (HC3X; repeat exposure, HC3X AAGLY D40, 1200 uM, listed as Nefadazone): 12.8% and 12.4% and 11.8% and 12.1% and 11.5% and 12.2%
